Data: publication PMC4399250, “Characterization of HIV-1 entry inhibitors with broad activity against R5 and X4 viral strains” (Journal of Translational Medicine, 2015)
Read-outs that look alike come from different tables or passages of the source.

Key:
HIV-1 IIIB (X4) [1] = assay type: cell-based
HIV-1 IIIB (X4) [2] = assay: HIV-1 acute infection of PHA-activated PBMC, p24 ELISA, IIIB strain; assay type: cell-based; details: for effect on X4 HIV-1 replication (in words): p24 day 7, concentrations tested up to 30 μM for the six compounds
CXCR4 = CXCR4 (Homo sapiens, UniProt P61073); assay: Flow cytometry competition with anti CXCR4 moAbs; assay type: binding; details: PM1 cells; ND-4043 30, 10, 3 μM; AMD3100 3, 0.3, 0.03 μM
CXCR4, sequence (P61073 whole entry): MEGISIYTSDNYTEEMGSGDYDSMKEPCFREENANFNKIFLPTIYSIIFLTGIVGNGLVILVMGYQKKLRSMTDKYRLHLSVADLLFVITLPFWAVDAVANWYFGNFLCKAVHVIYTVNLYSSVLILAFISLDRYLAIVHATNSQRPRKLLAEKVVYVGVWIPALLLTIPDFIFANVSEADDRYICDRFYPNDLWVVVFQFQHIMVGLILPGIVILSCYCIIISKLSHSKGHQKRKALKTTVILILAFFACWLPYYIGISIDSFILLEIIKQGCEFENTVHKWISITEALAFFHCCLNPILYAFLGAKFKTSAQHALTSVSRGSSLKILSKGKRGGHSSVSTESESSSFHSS

HIV-1 BaL (R5) [3] = assay: HIV-1 acute infection of PHA-activated PBMC, p24 ELISA, BaL strain; assay type: cell-based; details: for effect on R5 HIV-1 replication (in words): p24 day 7, concentrations tested up to 30 μM for the six compounds
influenza A virus = assay: Influenza virus-like particle entry assay in MDCK cells; assay type: cell-based; details: three concentrations, bafilomycin 100 nM
HIV-1 BaL (R5) [4] = assay: HIV-1 fusion assay, PM1-BaL donor and TZM-bl target cells; assay type: cell-based; details: PM1-BaL donor, TZM-bl target, 2.5% FCS
PBMC = assay: MTT cytotoxicity assay on PBMC; assay type: cell-based, human; details: infected PBMC
Experimental: PBMC and TZM-bl viability was measured by the MTT [3-(4,5- dimethylthiazol-2-yl)-2,5-diphenyl tetrazolium bromide; Sigma] assay. Cells were seeded in 96-well plates in three replicates and were incubated for four (TZM-bl) or six (PBMC) days with different concentrations of the compounds or DMSO alone at 0.2% as control. Then 10μl of complete medium containing MTT (0.5 mg/ml) was added to each well. After 24h incubation at 37°C, the supernatant was removed and 200μl of ethanol was added to each well to solubilize the formazan crystals. After vigorous shaking, absorbance was measured in a microplate reader at 490 nm.

[5] = IIIB (X4), infected PBMC, p24 day 7
[6] = BaL (R5), infected PBMC, p24 day 7

## c1cc(CN2CCCNCCNCCCNCC2)ccc1CN1CCCNCCNCCCNCC1 [AMD3100]
HIV-1 IIIB (X4) [1]
  effect on X4-mediated fusion (in words): selectively blocked entry
HIV-1 IIIB (X4) [2]; PBMC, p24 day 7, ten fold dilutions, complete inhibition for AMD3100
  concentration inhibiting X4 HIV-1 replication: 0.01 µM
HIV-1 IIIB (X4) [2]; side-by-side comparison
  activity relative to ND-4043 on X4 inhibition: approximately 100 fold
CXCR4
  effect on binding of four anti-CXCR4 moAbs: inhibited binding of the four moAbs in a concentration-dependent manner
HIV-1 BaL (R5) [3]; PBMC
  effect on R5 HIV-1 replication (in words): no effect

## CO/C1=C\C(C)=C\[C@@H](C)[C@@H](O)[C@@H](C)C/C(C)=C/C=C/[C@H](OC)[C@@H]([C@@H](C)[C@@H](O)[C@H](C)[C@@]2(O)C[C@@H](O)[C@H](C)[C@@H](C(C)C)O2)OC1=O [bafilomycin A1]
Influenza A virus
  effect on influenza A virus entry: inhibited viral entry significantly

## Cn1cc(NC(=O)c2cc(NC(=O)c3cc(NC=O)cn3C)cn2C)cc1C(=O)NCCC(=N)N [compound 4044, distamycin]
HIV-1 BaL (R5) [4]
  effect on R5-mediated fusion (in words): did not affect
HIV-1 IIIB (X4) [1]; SupT1-IIIB donor, TZM-bl target, 2.5% FCS
  effect on X4-mediated fusion (in words): did not affect
HIV-1 IIIB (X4) [2]; [5]
  IC50: > 30 µM
  IC75: >30 µM
  IC90: > 30 µM
HIV-1 IIIB (X4) [2]; PBMC
  effect on X4 HIV-1 replication (in words): not effective
PBMC; table section BaL (R5)
  CC50: 25 µM
PBMC; table section IIIB (X4)
  CC50: 30 µM
HIV-1 BaL (R5) [3]; [6]
  IC50: > 30 µM
  IC75: >30 µM
  IC90: > 30 µM
HIV-1 BaL (R5) [3]; PBMC
  effect on R5 HIV-1 replication (in words): not effective

## Maraviroc
HIV-1 BaL (R5) [4]
  effect on R5-mediated fusion (in words): selectively blocked entry
HIV-1 IIIB (X4) [2]; PBMC
  effect on X4 HIV-1 replication (in words): no effect
HIV-1 BaL (R5) [3]; PBMC, p24 day 7, ten fold dilutions, complete blockade for maraviroc
  concentration inhibiting R5 HIV-1 replication: 0.1 µM
HIV-1 BaL (R5) [3]; side-by-side comparison
  activity relative to ND-4043 on R5 inhibition: approximately 100 fold
